Experiment: xn = mol fraction of the nth substance listed
Conditions: 101 kPa, Liquid

CCOS(=O)(=O)[O-].CCn1cc[n+](C)c1 [1-ethyl-3-methylimidazolium ethyl sulfate] + CC1COC(=O)O1
x2 = 0
Conditions | mass density [kg/m3]
278.15 K | 1251.04
283.15 K | 1247.5
288.15 K | 1244.04
293.15 K | 1240.66
298.15 K | 1237.27
303.15 K | 1233.89
308.15 K | 1230.51

CCOS(=O)(=O)[O-].CCn1cc[n+](C)c1 [1-ethyl-3-methylimidazolium ethyl sulfate] + CC#N
mass density [kg/m3]
Conditions | 278.15 K | 283.15 K | 288.15 K | 293.15 K | 298.15 K | 303.15 K | 308.15 K
x2 = 0 | 1251.04 | 1247.5 | 1244.04 | 1240.66 | 1237.27 | 1233.89 | 1230.51
x2 = 0.0051 | 1250.84 | 1247.29 | 1243.84 | 1240.44 | 1237.06 | 1233.68 | 1230.3
x2 = 0.0099 | 1250 | 1246.45 | 1243.01 | 1239.61 | 1236.22 | 1232.83 | 1229.45
x2 = 0.0202 | 1249.09 | 1245.54 | 1242.11 | 1238.69 | 1235.31 | 1231.91 | 1228.53
x2 = 0.0499 | 1245.66 | 1242.09 | 1238.68 | 1235.26 | 1231.85 | 1228.44 | 1225.03
x2 = 0.1001 | 1239.88 | 1236.38 | 1232.93 | 1229.48 | 1226.04 | 1222.6 | 1219.16
x2 = 0.1426 | 1236.22 | 1232.77 | 1229.28 | 1225.81 | 1222.35 | 1218.9 | 1215.45
x2 = 0.2507 | 1218.64 | 1215.07 | 1211.5 | 1207.95 | 1204.39 | 1200.86 | 1197.33
x2 = 0.3434 | 1202.08 | 1198.44 | 1194.79 | 1191.15 | 1187.54 | 1183.93 | 1180.33
x2 = 0.4592 | 1177.36 | 1173.6 | 1169.85 | 1166.12 | 1162.39 | 1158.68 | 1154.98
x2 = 0.5799 | 1140.91 | 1137 | 1133.1 | 1129.22 | 1125.35 | 1121.49 | 1117.63
x2 = 0.679 | 1101.24 | 1097.17 | 1093.12 | 1089.08 | 1085.03 | 1081 | 1076.97
x2 = 0.7423 | 1068.73 | 1064.52 | 1060.33 | 1056.15 | 1051.97 | 1047.8 | 1043.63
x2 = 0.7865 | 1041.05 | 1036.74 | 1032.43 | 1028.13 | 1023.83 | 1019.53 | 1015.24
x2 = 0.8539 | 988.5 | 983.97 | 979.43 | 974.91 | 970.37 | 965.84 | 961.31
x2 = 0.897 | 945.89 | 941.18 | 936.47 | 931.76 | 927.04 | 922.31 | 917.58
x2 = 0.9342 | 902.15 | 897.28 | 892.39 | 887.47 | 882.61 | 877.89 | 873.12
x2 = 0.9567 | 871.14 | 866.13 | 861.1 | 856.07 | 851.01 | 845.95 | 840.87
x2 = 0.9707 | 849.53 | 844.43 | 839.31 | 834.19 | 829.04 | 823.87 | 818.69
x2 = 0.9803 | 833.78 | 828.62 | 823.44 | 818.24 | 813.02 | 807.78 | 802.52
x2 = 0.9872 | 821.79 | 816.57 | 811.34 | 806.09 | 800.81 | 795.52 | 790.19
x2 = 0.9925 | 812.49 | 807.23 | 801.95 | 796.67 | 791.34 | 786 | 780.62
x2 = 0.9967 | 804.39 | 799.09 | 793.78 | 788.44 | 783.08 | 777.69 | 772.28

CCOS(=O)(=O)[O-].CCn1cc[n+](C)c1 [1-ethyl-3-methylimidazolium ethyl sulfate] + CC(C)=O
mass density [kg/m3]
Conditions | 278.15 K | 283.15 K | 288.15 K | 293.15 K | 298.15 K | 303.15 K | 308.15 K
x2 = 0 | 1251.04 | 1247.5 | 1244.04 | 1240.66 | 1237.27 | 1233.89 | 1230.51
x2 = 0.0048 | 1250.35 | 1246.8 | 1243.35 | 1239.97 | 1236.57 | 1233.18 | 1229.8
x2 = 0.0098 | 1249.71 | 1246.16 | 1242.72 | 1239.31 | 1235.93 | 1232.54 | 1229.15
x2 = 0.015 | 1248.99 | 1245.43 | 1242 | 1238.59 | 1235.2 | 1231.8 | 1228.41
x2 = 0.0249 | 1247.95 | 1244.39 | 1240.97 | 1237.55 | 1234.16 | 1230.76 | 1227.37
x2 = 0.0399 | 1245.49 | 1241.93 | 1238.51 | 1235.1 | 1231.67 | 1228.26 | 1224.86
x2 = 0.06 | 1242.52 | 1238.99 | 1235.56 | 1232.12 | 1228.69 | 1225.26 | 1221.85
x2 = 0.0799 | 1239.64 | 1236.15 | 1232.7 | 1229.24 | 1225.79 | 1222.35 | 1218.92
x2 = 0.1002 | 1236.48 | 1233.02 | 1229.54 | 1226.07 | 1222.61 | 1219.16 | 1215.71
x2 = 0.1501 | 1228.75 | 1225.24 | 1221.72 | 1218.21 | 1214.71 | 1211.21 | 1207.73
x2 = 0.2066 | 1218.26 | 1214.69 | 1211.11 | 1207.54 | 1204 | 1200.46 | 1196.93
x2 = 0.2998 | 1200.04 | 1196.37 | 1192.71 | 1189.06 | 1185.43 | 1181.81 | 1178.19
x2 = 0.3999 | 1176.43 | 1172.65 | 1168.88 | 1165.13 | 1161.39 | 1157.66 | 1153.94
x2 = 0.5 | 1146.24 | 1142.32 | 1138.42 | 1134.53 | 1130.65 | 1126.78 | 1122.92
x2 = 0.6 | 1109.44 | 1105.35 | 1101.27 | 1097.2 | 1093.15 | 1089.1 | 1085.07
x2 = 0.7 | 1062.54 | 1058.23 | 1053.92 | 1049.61 | 1045.32 | 1041.02 | 1036.74
x2 = 0.8 | 1001.65 | 997.03 | 992.4 | 987.78 | 983.15 | 978.52 | 973.88
x2 = 0.9003 | 920.34 | 915.32 | 910.28 | 905.21 | 900.15 | 895.06 | 889.95
x2 = 0.95 | 869.49 | 864.22 | 858.92 | 853.61 | 848.26 | 842.89 | 837.49

From the NIST ThermoML archive (doi:10.1021/je1002237)
